Reference: article PMC11601558, “SLC6A19 inhibition facilitates urinary neutral amino acid excretion and lowers plasma phenylalanine” (JCI Insight, 2024)
Where “and” joins values, the source holds several entries; their conditions need not be identical. Identical values can stand only once.

Columns and labels:
Pah^enu2 mice = test: Plasma Phe in Pah^enu2 mice on defined amino acid diets (0.75%, 0.45%, 0.225% Phe); assay type: in vivo, mouse; parameters: plasma Phe: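 plasma Phe concentration in µM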; conditions: for mean plasma Phe lower than vehicle / plasma Phe, mean ± SD: 200 mg/kg, 3 hours after dose; for plasma Phe: Fig 3e, Pah^enu2 mice on defined diet, individual animals
Method: To modulate baseline plasma Phe levels, 8–13-week-old male Pah^enu2 mice were maintained on isocaloric amino acid–defined diets with either 7.5 g/kg (0.75%, Teklad T.2018.15), 4.5 g/kg (0.45%, Teklad custom formulation), or 2.25 g/kg (0.225%, Teklad custom formulation) L-Phe for 2 weeks before a single dose administration of 200 mg/kg JN-170 or vehicle. Animals had unrestricted access to food and water throughout the study. Serial plasma samples were taken predose as well as 1, 3, 8, 24 and 48 hours after the dose. For all studies, mice were dosed at 7:00 a.m. ± 30 minutes to synchronize with circadian rhythm.
Plasma sample analyses were carried out by liquid chromatography tandem mass spectrometry (LC-MS/MS). Plasma samples were mixed 1:1 with carbamazepine or ^13C6-Phe as internal standards for JN-170 and Phe, respectively. Plasma proteins were precipitated by adding 4 volumes of acetonitrile (ACN) and 0.1% formic acid (FA) followed by centrifugation for 5 minutes at 2,100g. Supernatants were diluted 1:1 in ACN and 0.1% FA. For JN-170, a Waters HSS T3 reversed phase column was used for separation using a binary gradient of 0.1% FA in water (mobile phase A) to 0.1% in ACN (mobile phase B). At a flow rate of 0.8 mL/min, the mobile phase gradient increased from an initial 25% phase B to 95% phase B over 30 seconds. After, 1.5 minutes, the gradient was returned to 25% mobile phase B. For detection of Phe, an Acquity UPLC ethylene bridged hybrid (BEH) amide column was used, with a binary gradient of 10 mM ammonium acetate in 95:5:1 H2O:ACN:FA (mobile phase A) to 10 mM ammonium acetate in 95:5:1 ACN:H2O:FA (mobile phase B). At a flow rate of 0.5 mL/min, the mobile phase gradient changed from an initial 100% phase B to 50% phase B over 2.1 minutes. It was returned to 100% phase B after 4 minutes. Analytes were detected using a Sciex API-5500 in multiple reaction monitoring mode using an electrospray ionization source in the positive ion mode with the following ion transitions: m/z 435.2/84.1 (JN-170), 237.1/194.1 (carbamazepine), 166.1/120.1 (Phe), 172.2/126.2 for (^13C6-Phe). Analyte concentrations were calculated with a 1/×^2 linear regression over a concentration range of 1 or 2 to 5,000 ng/mL for JN-170 and 0.05–100 ng/mL for Phe.

SLC6A19 = target: T1, SLC6A19 (Homo sapiens, UniProt Q695T7); test: SLC6A19 glutamine transport assay in human postmortem intestinal epithelial cells; assay type: cell-based; conditions: endogenous SLC6A19; geometric mean n = 5, 3 donors; 95% CI 33–197 nM
T1 construct: human intestinal epithelial cells with endogenous expression levels of SLC6A19; tissue AnaBios; host or cells: epithelial cells scraped from distal jejunum of human postmortem intestine (3 male donors)
T1 sequence (Q695T7 whole entry): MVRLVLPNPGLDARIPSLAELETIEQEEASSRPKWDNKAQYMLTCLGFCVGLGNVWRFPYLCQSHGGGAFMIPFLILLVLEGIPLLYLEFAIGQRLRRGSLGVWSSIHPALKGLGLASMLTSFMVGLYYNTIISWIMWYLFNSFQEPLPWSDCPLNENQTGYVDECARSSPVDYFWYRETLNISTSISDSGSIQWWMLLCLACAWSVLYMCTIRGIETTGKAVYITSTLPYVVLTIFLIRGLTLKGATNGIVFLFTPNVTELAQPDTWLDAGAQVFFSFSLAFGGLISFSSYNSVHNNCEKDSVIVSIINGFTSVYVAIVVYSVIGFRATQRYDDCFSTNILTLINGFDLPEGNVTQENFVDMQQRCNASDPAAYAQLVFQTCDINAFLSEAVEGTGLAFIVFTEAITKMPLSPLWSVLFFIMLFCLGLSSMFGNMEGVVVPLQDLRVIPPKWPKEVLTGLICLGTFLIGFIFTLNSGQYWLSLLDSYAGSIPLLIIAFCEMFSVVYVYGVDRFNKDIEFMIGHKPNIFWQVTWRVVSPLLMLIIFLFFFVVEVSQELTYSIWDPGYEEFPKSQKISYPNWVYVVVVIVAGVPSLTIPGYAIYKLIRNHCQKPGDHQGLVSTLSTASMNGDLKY
T1 sequence (Q9BYF1 18-805 partner): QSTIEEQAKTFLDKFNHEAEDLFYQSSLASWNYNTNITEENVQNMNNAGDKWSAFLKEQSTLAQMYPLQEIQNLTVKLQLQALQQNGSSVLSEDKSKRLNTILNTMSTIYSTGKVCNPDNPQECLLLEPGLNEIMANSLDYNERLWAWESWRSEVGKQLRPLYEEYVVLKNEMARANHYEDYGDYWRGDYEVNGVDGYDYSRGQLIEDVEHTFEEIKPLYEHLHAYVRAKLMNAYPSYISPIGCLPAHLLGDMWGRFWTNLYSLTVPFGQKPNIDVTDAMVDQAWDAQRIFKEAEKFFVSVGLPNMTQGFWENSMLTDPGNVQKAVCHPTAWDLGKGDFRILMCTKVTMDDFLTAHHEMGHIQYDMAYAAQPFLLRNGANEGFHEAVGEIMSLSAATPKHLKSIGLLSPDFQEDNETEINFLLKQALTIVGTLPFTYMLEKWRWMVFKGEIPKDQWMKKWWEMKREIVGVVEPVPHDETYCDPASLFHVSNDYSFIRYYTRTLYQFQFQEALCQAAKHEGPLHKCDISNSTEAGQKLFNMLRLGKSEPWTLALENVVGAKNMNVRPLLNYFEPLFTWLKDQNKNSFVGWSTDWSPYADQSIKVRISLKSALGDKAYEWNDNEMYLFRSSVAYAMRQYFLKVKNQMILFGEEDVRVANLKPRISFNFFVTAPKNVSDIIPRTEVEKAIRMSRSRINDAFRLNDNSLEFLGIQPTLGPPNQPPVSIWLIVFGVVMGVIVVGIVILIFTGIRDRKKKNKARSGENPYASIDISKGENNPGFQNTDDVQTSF
Source text: Human postmortem intestines from 3 male donors (ages 23–36 years) were provided by AnaBios. Following trimming of excess fat, the distal part of the jejunum was dissected into tissue sections of approximately 100 cm^2 and further processed on ice. These sections contained an estimated approximately 250 million epithelial cells ([28], [29]). Epithelial cells were scraped off each tissue section with a tissue scraper and collected in ice-cold Hank’s balanced salt solution (HBSS). Following centrifuging for 5 min at 300g at 4°C, the supernatant was aspirated and the cell pellet was washed 3–6 times by resuspending in ice-cold HBSS (Thermo Fisher Scientific). […]
Human postmortem epithelial cells isolated from small intestine were centrifuged for 5 minutes at 300g and 4°C and resuspended in Krebs buffer (140 mM sodium chloride, 4.7 mM KCl, 2.5 mM CaCl2, 1.2 mM MgCl2, 11 mM HEPES, 10 mM glucose, pH 7.4) at a density of 7.5 × 10^6 cells/mL. […] The uptake of 2,3,4-^3H–labeled L-glutamine was measured on a Microbeta^2 microplate counter (PerkinElmer).
IC50 values for transport inhibition in cells overexpressing SLC6A19 and TMEM27 were calculated using a 4-parameter logistic regression in Collaborative Drug Discovery (CDD). […] The IC50 values of individual experiments were calculated with a 3- or 4-parameter logistic regression using GraphPad Prism 9. […]

Row | Compound | mean plasma Phe lower than vehicle (Pah^enu2 mice; 0.225% Phe diet) | plasma Phe, mean ± SD (Pah^enu2 mice; 0.225% Phe diet) | mean plasma Phe lower than vehicle (Pah^enu2 mice; 0.45% Phe diet) | plasma Phe, mean ± SD (Pah^enu2 mice; 0.45% Phe diet) | mean plasma Phe lower than vehicle (Pah^enu2 mice; 0.75% Phe diet) | plasma Phe, mean ± SD (Pah^enu2 mice; 0.75% Phe diet) | plasma Phe (Pah^enu2 mice; time 0 h) | plasma Phe (Pah^enu2 mice; time 1 h) | plasma Phe (Pah^enu2 mice; time 3 h) | plasma Phe (Pah^enu2 mice; time 8 h) | plasma Phe (Pah^enu2 mice; time 24 h) | IC50 (SLC6A19)
1 | N#Cc1ccc(-c2noc([C@]3(C(F)(F)F)CCN(C(=O)NCCC4(N)CC4)C3)n2)cc1 [JN-170] | 47% | 309 ± 108 µM | 61% | 416 ± 117 µM | 59% | 621 ± 141 µM | 2027 and 2042 and 2474 and 2301 and 2768 and 2728 and 2723 and 1767 and 1191 and 962 and 924 and 848 and 1013 and 971 and 1061 and 1569 and 1364 and 1314 | 884 and 990 and 803 and 886 and 865 and 914 and 675 and 1252 and 589 and 1292 and 1010 and 927 and 813 and 907 and 727 and 787 and 898 and 1296 and 942 and 978 | 973 and 455 and 892 and 697 and 736 and 559 and 671 and 509 and 763 and 495 and 635 and 669 and 535 and 654 and 529 and 586 and 485 and 516 and 441 and 769 and 511 and 574 | 938 and 505 and 720 and 502 and 600 and 578 and 665 and 577 and 945 and 657 and 745 and 672 and 637 and 621 and 611 and 518 and 376 and 392 and 476 (2×) and 629 | 1767 and 1553 and 1370 and 1402 and 1592 and 597 and 1045 and 1827 and 1448 and 1043 and 988 and 1535 and 1388 and 1336 and 1203 and 1339 and 1578 and 871 and 1063 | 
2 | NC(=O)N1CCC[C@@H](N(C(=O)NCc2ccc(OC(F)(F)F)cc2F)C2CC2)C1 [JNT-517] |  |  |  |  |  |  |  |  |  |  |  | 81 nM
